# According to patent US20100047166A1, “ANTIBODIES AND RELATED MOLECULES THAT BIND TO 58P1D12 PROTEINS” (priority 2008, published 2010):
# System: LAPC9-AI prostate tumor xenografts
# Assay: Established LAPC9-AI prostate tumor xenografts in tibiae, monotherapy and combination with Carboplatin
# Assay type: in vivo, SCID mice
# Settings: day 33; MAb 2 mg loading then 1.0 mg i.p. two times a week, 7 doses; Carboplatin 40 mg/kg i.v. days 7, 11, 15, 19, 22, 26; vs control antibody
# Method: FIG. 16. […] The tumors were allowed to establish for 7 days, at which time the animals were randomized and assigned to four different groups (n=10 in each group) as indicated in the graph. […] Carboplatin (40 mg/kg) was administered to the mice intravenously (i.v.) on days 7, 11, 15, 19, 22 and 26. On day 33 all mice were sacrificed and the tumors were excised and weighed on an electronic balance.
# The tumors were allowed to establish for 7 days, at which time the animals were randomized and assigned to four different groups (n=10 in each group). […] Carboplatin (40 mg/kg) was administered to the mice intravenously (i.v.) on days 7, 11, 15, 19, 22 and 26. On day 33 all mice were sacrificed and the tumors were excised and weighed on an electronic balance.
smiles,measurement,value
"N.N.O=C([O-])C1(C(=O)[O-])CCC1.[Pt+2] [Carboplatin, reference compound]",inhibition of tumor growth (tumor weight),87%
